Experimental data: ChEMBL document CHEMBL1833893, “Synthesis and anticonvulsant activity of new 1-[2-oxo-2-(4-phenylpiperazin-1-yl)ethyl]pyrrolidine-2,5-diones” (Bioorg Med Chem Lett, 2011)
The source made the active and inactive calls. No cut-off for these calls is given here.

Columns and labels:
Rattus norvegicus [1] = experiment: Anticonvulsant activity in Sprague-Dawley rat assessed as protection against maximal electroshock-induced seizures at 30 mg/kg, po after 0.25 hrs; type: functional
Mus musculus [2] = experiment: Neurotoxicity in ip dosed albino CF1 mouse assessed as minimum dose required to cause motor impairment after 0.5 hrs by rotarod test; type: toxicity, organism-based; details: in vivo
Mus musculus [3] = experiment: Anticonvulsant activity in albino CF1 mouse assessed as protection against electrically-induced seizure at 100 mg/kg, ip after 1 hr by 6Hz psychomotor seizure test; type: functional; details: route intraperitoneal
Rattus norvegicus [4] = experiment: Anticonvulsant activity in Sprague-Dawley rat assessed as protection against maximal electroshock-induced seizures at 30 mg/kg, po after 2 hrs; type: functional
Mus musculus [5] = experiment: Anticonvulsant activity in albino CF1 mouse assessed as protection against electrically-induced seizure at 100 mg/kg, ip after 0.25 hrs by 6Hz psychomotor seizure test; type: functional; details: route intraperitoneal
Mus musculus [6] = experiment: Anticonvulsant activity in albino CF1 mouse assessed as protection against subcutaneous pentylenetetrazole-induced seizures at 300 mg/kg, ip after 0.5 hrs; type: functional, organism-based; set-up: dose 300 mg/kg
Mus musculus [7] = experiment: Anticonvulsant activity in albino CF1 mouse assessed as protection against electrically-induced seizure at 100 mg/kg, ip after 0.5 hrs by 6Hz psychomotor seizure test; type: functional; details: route intraperitoneal
Mus musculus [8] = experiment: Anticonvulsant activity in albino CF1 mouse assessed as protection against electrically-induced seizure at 100 mg/kg, ip after 4 hrs by 6Hz psychomotor seizure test; type: functional; details: route intraperitoneal
Rattus norvegicus [9] = experiment: Anticonvulsant activity in Sprague-Dawley rat assessed as protection against maximal electroshock-induced seizures at 30 mg/kg, po after 4 hrs; type: functional
Mus musculus [10] = experiment: Anticonvulsant activity in ip dosed albino CF1 mouse assessed as protection against maximal electroshock-induced seizures after 0.5 hrs; type: functional; details: read-out: MED
Mus musculus [11] = experiment: Neurotoxicity in ip dosed albino CF1 mouse assessed as minimum dose required to cause motor impairment after 4 hrs by rotarod test; type: toxicity, organism-based; details: in vivo
Rattus norvegicus [12] = experiment: Anticonvulsant activity in Sprague-Dawley rat assessed as protection against maximal electroshock-induced seizures at 30 mg/kg, po after 1 hr; type: functional
Mus musculus [13] = experiment: Anticonvulsant activity in ip dosed albino CF1 mouse assessed as protection against subcutaneous pentylenetetrazole-induced seizures after 4 hrs; type: functional; details: albino CF1, 4 h, read-out: MED
Mus musculus [14] = experiment: Anticonvulsant activity in albino CF1 mouse assessed as protection against electrically-induced seizure at 100 mg/kg, ip after 2 hrs by 6Hz psychomotor seizure test; type: functional; details: route intraperitoneal
Mus musculus [15] = experiment: Anticonvulsant activity in ip dosed albino CF1 mouse assessed as protection against maximal electroshock-induced seizures after 4 hrs; type: functional; details: read-out: MED
Mus musculus [16] = experiment: Anticonvulsant activity in albino CF1 mouse assessed as protection against maximal electroshock-induced seizures at 300 mg/kg, ip after 4 hrs; type: functional, organism-based; set-up: dose 300 mg/kg
Mus musculus [17] = experiment: Neurotoxicity in albino CF1 mouse assessed as motor impairment at 300 mg/kg, ip after 4 hrs by rotarod test; type: toxicity, organism-based; set-up: dose 300 mg/kg, route intraperitoneal; details: in vivo
Mus musculus [18] = experiment: Anticonvulsant activity in ip dosed albino CF1 mouse assessed as protection against subcutaneous pentylenetetrazole-induced seizures after 0.5 hrs; type: functional; details: albino CF1, 0.5 h, read-out: MED
Mus musculus [19] = experiment: Neurotoxicity in albino CF1 mouse assessed as motor impairment at 300 mg/kg, ip after 0.5 hrs by rotarod test; type: toxicity, organism-based; set-up: dose 300 mg/kg, route intraperitoneal; details: in vivo
Mus musculus [20] = experiment: Anticonvulsant activity in albino CF1 mouse assessed as protection against maximal electroshock-induced seizures at 300 mg/kg, ip after 0.5 hrs; type: functional, organism-based; set-up: dose 300 mg/kg
Mus musculus [21] = experiment: Anticonvulsant activity in ip dosed albino CF1 mouse assessed as protection against maximal electroshock-induced seizures after 0.25 hrs; type: functional; details: read-out: MED
Mus musculus [22] = experiment: Anticonvulsant activity in albino CF1 mouse assessed as protection against subcutaneous pentylenetetrazole-induced seizures at 300 mg/kg, ip after 4 hrs; type: functional, organism-based; set-up: dose 300 mg/kg

| Compound | MTC (Mus musculus [2]) [mg/kg] | Activity (Mus musculus [6]) | minimal effective dose (Mus musculus [10]) [mg/kg] | minimal effective dose (Mus musculus [13]) [mg/kg] | Activity (Mus musculus [16]) | Activity (Mus musculus [17]) | minimal effective dose (Mus musculus [18]) [mg/kg] | Activity (Mus musculus [19]) | further results |
| --- | --- | --- | --- | --- | --- | --- | --- | --- | --- |
| O=C(CN1C(=O)CCC1=O)N1CCN(c2cccc(C(F)(F)F)c2)CC1 | 100 | inactive | 100 | 300 | – | – | – | – | Activity (Rattus norvegicus [1]): inactive; Activity (Mus musculus [3]): 75%; Activity (Rattus norvegicus [4]): 75%; Activity (Mus musculus [5]): 100%; Activity (Mus musculus [7]): 100%; Activity (Mus musculus [8]): 75%; Activity (Rattus norvegicus [9]): 75%; MTC (Mus musculus [11]): 300 mg/kg; Activity (Rattus norvegicus [12]): 75%; Activity (Mus musculus [14]): 100%; minimal effective dose (Mus musculus [15]): 100 mg/kg |
| CC1CC(=O)N(CC(=O)N2CCN(c3ccccc3)CC2)C1=O (centres undefined) | 300 | – | 300 | 300 | inactive | Non-toxic | 300 | – | – |
| CCC1(C)CC(=O)NC1=O (centres undefined) [ETHOSUXIMIDE] | – | – | – | 300 | inactive | Non-toxic | 100 | Non-toxic | Activity (Mus musculus [20]): inactive |
| CC1(C)CC(=O)N(CC(=O)N2CCN(c3ccccc3)CC2)C1=O | – | inactive | 300 | – | inactive | Non-toxic | – | Non-toxic | minimal effective dose (Mus musculus [21]): 100 mg/kg; Activity (Mus musculus [22]): inactive |
